Assay results: ChEMBL document CHEMBL1201862, “PubChem BioAssay data set” (2004)
Activity calls are given as the source filed them.

Tests used:
HEK293 = assay: inhibitors of LMP1-driven NF-kB reporter, dose response, cell-based, HEK293, luciferase, cherry-pick (AID 588343); type: functional; details: Homo sapiens
[1] = target: 26S proteasome non-ATPase regulatory subunit 14 (Homo sapiens, UniProt O00487); assay: inhibition of proteasome subunit RPN11 – biochemical, fluorescence polarization, uHTS hits, confirmation (AID 602368); type: functional
Prothrombin = Prothrombin (Bos taurus, UniProt P00735); assay: thrombin inhibition, dose response, biochemical, fluorescence polarization, uHTS hits (AID 602369); type: functional
[2] = target: 72 kDa type IV collagenase (Homo sapiens, UniProt P08253); assay: Dose Response validation of uHTS RPN11 inhibitor hits using a MMP-2 Fluorescence assay.; type: functional
Chain of 72 kDa type IV collagenase (P08253 whole entry): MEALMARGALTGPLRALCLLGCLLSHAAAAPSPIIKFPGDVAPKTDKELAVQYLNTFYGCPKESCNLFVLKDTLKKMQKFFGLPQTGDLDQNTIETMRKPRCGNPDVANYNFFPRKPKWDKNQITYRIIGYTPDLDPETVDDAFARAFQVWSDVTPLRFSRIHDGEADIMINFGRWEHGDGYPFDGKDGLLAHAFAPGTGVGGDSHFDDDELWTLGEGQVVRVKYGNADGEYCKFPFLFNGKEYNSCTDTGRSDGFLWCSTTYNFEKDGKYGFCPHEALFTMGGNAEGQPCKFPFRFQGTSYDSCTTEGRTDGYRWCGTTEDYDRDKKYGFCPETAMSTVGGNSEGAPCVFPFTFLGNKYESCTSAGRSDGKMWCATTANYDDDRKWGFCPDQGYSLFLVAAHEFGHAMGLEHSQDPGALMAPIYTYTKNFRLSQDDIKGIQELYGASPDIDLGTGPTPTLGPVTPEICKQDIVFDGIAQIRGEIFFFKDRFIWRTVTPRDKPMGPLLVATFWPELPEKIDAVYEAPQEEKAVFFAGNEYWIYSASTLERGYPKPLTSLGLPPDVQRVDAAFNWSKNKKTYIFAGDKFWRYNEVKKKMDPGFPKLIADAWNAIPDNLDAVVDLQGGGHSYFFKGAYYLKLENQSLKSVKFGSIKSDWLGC

HeLa = assay: HeLa cell cytotoxicity, dose response, cytotoxicity control for MITF activator project, CellTiter-Glo luminescence, cherry-pick samples (AID 540259); type: functional, cell-based; details: Homo sapiens
H4 = assay: Luminescence Cell-Based Dose Response HTS to Identify Activators of 5'UTR Stem-Loop Driven Prion Protein mRNA Translation in H4 Neuroglioblastoma Cells. [Related pubchem assays: 1829 (Project Summary), 1814 (Primary HTS)]; type: functional; details: Homo sapiens
[3] = Luminescence Cell-Based Dose Response HTS to Identify Activators of Luciferase Translation or Activity in H4 […] Cells. [Related pubchem assays: 1829 (Project Summary), 1814 (Primary HTS)]; type: functional
[4] = Luminescence Cell-Based Dose Confirmation HTS to Identify Activators of 5'UTR Stem-Loop Driven Alpha-Synuclein mRNA Translation in H4 Neuroglioblastoma Cells. [Related pubchem assays: 1829 (Project Summary), 1814 (Primary HTS)]; type: functional
[5] = target: T1, Microphthalmia-associated transcription factor (Homo sapiens, UniProt O75030); assay: TRPM1 promoter luciferase signal decrease, dose response, MITF inhibitor project, cell-based, SK-MEL-5, cherry-picked, set 3 (AID 493073); type: functional
T1 sequence (O75030 whole entry): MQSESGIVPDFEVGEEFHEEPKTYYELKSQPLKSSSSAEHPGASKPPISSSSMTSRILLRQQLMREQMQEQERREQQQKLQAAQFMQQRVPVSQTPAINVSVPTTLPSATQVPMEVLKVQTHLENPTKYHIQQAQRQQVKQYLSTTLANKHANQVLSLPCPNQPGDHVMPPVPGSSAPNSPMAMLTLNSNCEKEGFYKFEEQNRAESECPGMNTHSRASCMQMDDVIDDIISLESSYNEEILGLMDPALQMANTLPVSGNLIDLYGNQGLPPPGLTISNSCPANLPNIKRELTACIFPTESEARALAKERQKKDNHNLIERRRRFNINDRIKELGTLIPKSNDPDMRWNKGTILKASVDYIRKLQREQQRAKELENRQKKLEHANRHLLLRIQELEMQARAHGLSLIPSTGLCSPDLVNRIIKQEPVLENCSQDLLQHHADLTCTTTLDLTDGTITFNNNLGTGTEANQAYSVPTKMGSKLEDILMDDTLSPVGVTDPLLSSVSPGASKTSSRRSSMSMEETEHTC

H9c2 = assay: cells; type: functional, cell-based; details: Rattus norvegicus, H9c2, Myocardium;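 also: confirmatory concentration-response retest of ultra-high-throughput screening hits for modulation of myocardial damage; cell death induced by hydrogen peroxide oxidative stress; compound pretreatment for 60 min then peroxide exposure for 2 h; potency is for protecting the cells against peroxide damage rather than for killing them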
[6] = target: T2, Replicative DNA helicase DnaB (Mycobacterium tuberculosis, UniProt P9WMR3); assay: DnaB intein splicing inhibitors, dose response, biochemical, cell-free fluorescence (AID 449749); type: functional
T2 sequence (P9WMR3 whole entry): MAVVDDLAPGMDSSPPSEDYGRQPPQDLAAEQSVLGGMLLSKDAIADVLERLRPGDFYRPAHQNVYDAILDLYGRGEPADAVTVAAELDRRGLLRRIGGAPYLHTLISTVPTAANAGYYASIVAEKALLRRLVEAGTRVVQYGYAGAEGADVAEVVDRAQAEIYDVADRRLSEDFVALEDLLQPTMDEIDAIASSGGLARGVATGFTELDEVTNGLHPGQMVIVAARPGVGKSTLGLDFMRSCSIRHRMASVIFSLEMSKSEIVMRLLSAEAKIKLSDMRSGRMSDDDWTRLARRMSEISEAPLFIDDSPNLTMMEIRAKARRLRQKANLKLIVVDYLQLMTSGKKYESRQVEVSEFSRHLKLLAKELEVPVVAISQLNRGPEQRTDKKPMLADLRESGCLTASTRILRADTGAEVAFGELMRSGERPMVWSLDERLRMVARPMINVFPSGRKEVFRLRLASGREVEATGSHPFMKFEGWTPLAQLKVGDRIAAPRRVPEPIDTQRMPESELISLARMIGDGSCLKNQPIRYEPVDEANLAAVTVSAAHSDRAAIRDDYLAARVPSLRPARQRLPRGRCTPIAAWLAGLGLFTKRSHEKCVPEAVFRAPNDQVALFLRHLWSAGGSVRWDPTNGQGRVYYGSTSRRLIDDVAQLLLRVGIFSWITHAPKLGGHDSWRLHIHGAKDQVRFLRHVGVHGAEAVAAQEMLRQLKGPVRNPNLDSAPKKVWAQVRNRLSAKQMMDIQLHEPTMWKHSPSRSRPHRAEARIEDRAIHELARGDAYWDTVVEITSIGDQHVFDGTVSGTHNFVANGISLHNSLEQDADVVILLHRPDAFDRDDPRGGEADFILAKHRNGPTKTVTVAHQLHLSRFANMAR

Fatty acid synthase [7] = target: T3, Fatty acid synthase (Homo sapiens, UniProt P49327); assay: FAS thioesterase domain inhibitors, dose response, biochemical, kinetic fluorescence intensity (AID 624326); type: functional;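 also: rate of fluorescence rise from hydrolysis of a fluorogenic O-methyl fluorescein ester substrate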
Fatty acid synthase [8] = target: T3, Fatty acid synthase; assay: FAS thioesterase domain inhibitors, dose response, biochemical, endpoint fluorescence intensity, uHTS hits (AID 624327); type: functional;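 also: fluorescence from hydrolysis of an O-methyl fluorescein acyl ester substrate by the enzyme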
Protein RecA = target: T4, Protein RecA (Mycobacterium tuberculosis, UniProt P9WHJ3); assay: Fluorescence Cell-Free Homogeneous Dose Retest to Identify Inhibitors of RecA-Intein Splicing Activity. [Related pubchem assays (depositor defined):AID2097, AID2223, AID489010, AID492950]; type: functional
T4 sequence (P9WHJ3 whole entry): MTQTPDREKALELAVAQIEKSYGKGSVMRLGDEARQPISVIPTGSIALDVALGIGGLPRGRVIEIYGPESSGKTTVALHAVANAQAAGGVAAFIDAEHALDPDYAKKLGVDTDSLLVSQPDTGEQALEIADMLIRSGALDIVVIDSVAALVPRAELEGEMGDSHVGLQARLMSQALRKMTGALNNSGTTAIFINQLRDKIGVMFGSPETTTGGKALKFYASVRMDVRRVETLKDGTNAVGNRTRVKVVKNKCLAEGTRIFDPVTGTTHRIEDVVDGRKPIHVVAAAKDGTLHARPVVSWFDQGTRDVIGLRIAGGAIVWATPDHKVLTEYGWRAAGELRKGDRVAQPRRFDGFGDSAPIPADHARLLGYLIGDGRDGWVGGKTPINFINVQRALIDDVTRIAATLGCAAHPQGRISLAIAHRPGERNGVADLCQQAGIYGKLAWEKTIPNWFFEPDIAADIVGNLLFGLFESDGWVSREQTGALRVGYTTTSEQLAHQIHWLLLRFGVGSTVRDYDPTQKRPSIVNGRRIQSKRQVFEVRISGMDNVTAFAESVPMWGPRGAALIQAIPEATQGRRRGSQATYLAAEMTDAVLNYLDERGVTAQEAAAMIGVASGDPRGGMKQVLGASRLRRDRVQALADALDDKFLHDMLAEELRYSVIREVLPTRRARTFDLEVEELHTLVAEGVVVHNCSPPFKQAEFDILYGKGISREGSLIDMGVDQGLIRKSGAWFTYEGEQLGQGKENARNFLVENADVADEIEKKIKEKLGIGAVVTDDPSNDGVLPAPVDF

[9] = target: Peroxisome proliferator-activated receptor gamma/Nuclear receptor coactivator 2 (Homo sapiens, UniProt P37231); assay: (§1) TR-FRET dose response biochemical High Throughput Screening assay for agonists of the steroid receptor coactivator 2 (SRC-2) recruitment by the peroxisome proliferator-activated receptor gamma (PPAR gamma): non-selective agonists. [Related pubchem assays: 1297, 1032 ]; type: functional
Chain of Peroxisome proliferator-activated receptor gamma/Nuclear receptor coactivator 2 (P37231 whole entry): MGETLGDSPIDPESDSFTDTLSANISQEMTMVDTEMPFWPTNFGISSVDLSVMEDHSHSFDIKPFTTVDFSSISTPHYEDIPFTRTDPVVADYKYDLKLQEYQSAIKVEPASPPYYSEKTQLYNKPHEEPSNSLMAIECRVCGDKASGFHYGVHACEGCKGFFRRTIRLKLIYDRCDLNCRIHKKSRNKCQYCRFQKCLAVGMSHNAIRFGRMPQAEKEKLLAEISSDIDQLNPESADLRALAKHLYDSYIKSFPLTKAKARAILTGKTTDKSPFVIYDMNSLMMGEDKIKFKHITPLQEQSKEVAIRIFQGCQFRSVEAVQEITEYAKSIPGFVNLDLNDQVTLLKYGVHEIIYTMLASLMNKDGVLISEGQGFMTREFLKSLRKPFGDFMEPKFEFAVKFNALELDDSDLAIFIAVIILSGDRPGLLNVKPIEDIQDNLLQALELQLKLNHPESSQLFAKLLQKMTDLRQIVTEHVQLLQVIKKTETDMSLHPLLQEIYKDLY
Chain of Peroxisome proliferator-activated receptor gamma/Nuclear receptor coactivator 2 (Q15596 whole entry, further chain): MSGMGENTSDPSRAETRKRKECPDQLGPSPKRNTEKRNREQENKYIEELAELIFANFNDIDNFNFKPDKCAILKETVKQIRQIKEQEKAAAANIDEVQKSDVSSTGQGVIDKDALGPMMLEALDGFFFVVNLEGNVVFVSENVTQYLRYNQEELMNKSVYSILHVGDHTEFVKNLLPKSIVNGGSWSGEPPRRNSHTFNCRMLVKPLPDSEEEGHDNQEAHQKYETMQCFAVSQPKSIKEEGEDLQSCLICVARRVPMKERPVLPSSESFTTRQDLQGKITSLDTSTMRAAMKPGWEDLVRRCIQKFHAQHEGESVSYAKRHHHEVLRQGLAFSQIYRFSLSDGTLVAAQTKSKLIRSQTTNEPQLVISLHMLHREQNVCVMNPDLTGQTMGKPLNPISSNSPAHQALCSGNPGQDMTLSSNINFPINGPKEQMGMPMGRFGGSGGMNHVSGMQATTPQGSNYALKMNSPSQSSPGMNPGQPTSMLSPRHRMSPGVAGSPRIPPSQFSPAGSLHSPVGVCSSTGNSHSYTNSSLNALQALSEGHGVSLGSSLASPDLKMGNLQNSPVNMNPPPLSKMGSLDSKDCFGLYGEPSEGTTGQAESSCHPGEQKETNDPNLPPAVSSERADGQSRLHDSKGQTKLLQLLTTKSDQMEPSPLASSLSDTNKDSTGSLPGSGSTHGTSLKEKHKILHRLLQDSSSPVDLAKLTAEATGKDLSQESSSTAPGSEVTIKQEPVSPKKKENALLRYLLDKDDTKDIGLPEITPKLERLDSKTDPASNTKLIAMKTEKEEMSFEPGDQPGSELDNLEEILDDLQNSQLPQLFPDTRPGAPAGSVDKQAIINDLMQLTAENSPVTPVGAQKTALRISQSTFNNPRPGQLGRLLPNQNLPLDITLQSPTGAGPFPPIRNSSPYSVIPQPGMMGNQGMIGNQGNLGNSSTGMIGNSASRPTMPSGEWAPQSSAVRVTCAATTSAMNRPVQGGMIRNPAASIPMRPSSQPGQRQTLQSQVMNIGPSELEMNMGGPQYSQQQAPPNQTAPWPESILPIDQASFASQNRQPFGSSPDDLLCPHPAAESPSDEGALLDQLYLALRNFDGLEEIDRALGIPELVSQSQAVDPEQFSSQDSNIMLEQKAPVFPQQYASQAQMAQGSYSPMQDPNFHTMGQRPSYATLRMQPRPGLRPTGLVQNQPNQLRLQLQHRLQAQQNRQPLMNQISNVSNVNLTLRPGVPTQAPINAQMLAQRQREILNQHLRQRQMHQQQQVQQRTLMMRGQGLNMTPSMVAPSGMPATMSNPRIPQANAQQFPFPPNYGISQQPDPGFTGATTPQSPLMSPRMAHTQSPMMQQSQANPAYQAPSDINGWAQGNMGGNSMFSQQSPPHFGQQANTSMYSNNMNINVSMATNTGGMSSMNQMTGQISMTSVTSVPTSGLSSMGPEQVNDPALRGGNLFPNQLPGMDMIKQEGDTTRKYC

[10] = target: Peroxisome proliferator-activated receptor gamma/Nuclear receptor coactivator 3 (Homo sapiens, UniProt P37231); assay: as §1, with “3 (SRC-3)” for “2 (SRC-2)”, “1301 (Confirmation screen.), 1048 (Primary screen.)]” for “1297, 1032 ]”; type: functional
Chain of Peroxisome proliferator-activated receptor gamma/Nuclear receptor coactivator 3 (P37231 whole entry): as the sequence (P37231 whole entry) above
Chain of Peroxisome proliferator-activated receptor gamma/Nuclear receptor coactivator 3 (Q9Y6Q9 whole entry, further chain): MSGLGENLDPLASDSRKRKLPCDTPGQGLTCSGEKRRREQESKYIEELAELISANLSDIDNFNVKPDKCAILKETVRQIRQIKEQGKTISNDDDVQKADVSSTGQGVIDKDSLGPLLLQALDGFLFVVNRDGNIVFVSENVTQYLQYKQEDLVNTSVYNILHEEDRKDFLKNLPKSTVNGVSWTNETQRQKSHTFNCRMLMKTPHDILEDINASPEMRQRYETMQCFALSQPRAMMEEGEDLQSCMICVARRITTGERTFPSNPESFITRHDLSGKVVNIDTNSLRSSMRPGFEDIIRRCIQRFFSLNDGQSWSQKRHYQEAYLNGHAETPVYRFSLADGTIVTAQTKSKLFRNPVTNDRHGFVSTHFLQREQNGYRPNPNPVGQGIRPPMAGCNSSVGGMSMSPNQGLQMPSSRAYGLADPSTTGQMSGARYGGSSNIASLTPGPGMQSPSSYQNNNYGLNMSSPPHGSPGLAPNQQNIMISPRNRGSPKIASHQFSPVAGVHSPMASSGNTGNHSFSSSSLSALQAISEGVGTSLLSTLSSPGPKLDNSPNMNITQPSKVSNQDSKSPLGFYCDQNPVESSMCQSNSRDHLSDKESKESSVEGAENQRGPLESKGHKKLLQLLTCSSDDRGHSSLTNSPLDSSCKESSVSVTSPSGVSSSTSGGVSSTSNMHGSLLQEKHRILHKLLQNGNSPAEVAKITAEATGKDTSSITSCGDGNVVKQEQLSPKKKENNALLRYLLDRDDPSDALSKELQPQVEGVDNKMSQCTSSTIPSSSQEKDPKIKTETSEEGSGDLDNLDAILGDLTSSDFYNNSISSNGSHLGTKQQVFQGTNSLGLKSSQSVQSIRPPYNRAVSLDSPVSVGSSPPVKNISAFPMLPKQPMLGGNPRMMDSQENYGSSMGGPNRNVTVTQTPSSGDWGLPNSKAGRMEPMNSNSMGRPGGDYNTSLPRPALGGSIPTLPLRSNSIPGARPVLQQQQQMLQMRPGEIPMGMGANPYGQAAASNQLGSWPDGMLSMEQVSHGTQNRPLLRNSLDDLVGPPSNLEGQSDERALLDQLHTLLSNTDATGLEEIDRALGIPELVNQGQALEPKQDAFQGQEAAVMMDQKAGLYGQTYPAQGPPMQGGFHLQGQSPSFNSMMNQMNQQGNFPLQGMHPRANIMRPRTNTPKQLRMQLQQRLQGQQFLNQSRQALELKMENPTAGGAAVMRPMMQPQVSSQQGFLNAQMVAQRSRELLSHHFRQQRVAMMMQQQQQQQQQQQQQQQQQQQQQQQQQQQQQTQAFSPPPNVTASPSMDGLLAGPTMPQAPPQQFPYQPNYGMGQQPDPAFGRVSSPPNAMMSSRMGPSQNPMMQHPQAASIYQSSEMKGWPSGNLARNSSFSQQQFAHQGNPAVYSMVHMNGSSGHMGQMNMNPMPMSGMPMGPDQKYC

[11] = target: Peroxisome proliferator-activated receptor gamma/Nuclear receptor coactivator 1 (Homo sapiens, UniProt P37231); assay: as §1, with “1 (SRC-1)” for “2 (SRC-2)”, “assays (depositor defined):AID1300, AID1808, AID504735, AID631]” for “assays: 1297, 1032 ]”; type: protein assay
Cytochrome P450 2C9 = Cytochrome P450 2C9 (Homo sapiens, UniProt P11712)
[12] = Shn3 3'UTR reporter inhibitors, dose response, cell-based, Clone20 osteoblasts, firefly luciferase, cherry-picked (AID 624132); type: functional;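 also: firefly luciferase luminescence from reporter carrying the Shn3 3'UTR in osteoblasts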
[13] = HepG2 cell cytotoxicity, dose response, cytotoxicity control for Shn3 inhibitor project, CellTiter-Glo, cherry-picked (AID 624134); type: functional, cell-based
[14] = control 3'UTR Renilla luciferase suppression, dose response, counter-screen for Shn3 inhibitor project, cell-based, Clone20-Shn3RL, cherry-picked (AID 624133); type: functional
Cytochrome P450 3A4 [15] = target: T5, Cytochrome P450 3A4 (Homo sapiens, UniProt P08684);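 also: CYP3A4 tested as one member of a cytochrome P450 panel screen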
T5 sequence (P08684 whole entry): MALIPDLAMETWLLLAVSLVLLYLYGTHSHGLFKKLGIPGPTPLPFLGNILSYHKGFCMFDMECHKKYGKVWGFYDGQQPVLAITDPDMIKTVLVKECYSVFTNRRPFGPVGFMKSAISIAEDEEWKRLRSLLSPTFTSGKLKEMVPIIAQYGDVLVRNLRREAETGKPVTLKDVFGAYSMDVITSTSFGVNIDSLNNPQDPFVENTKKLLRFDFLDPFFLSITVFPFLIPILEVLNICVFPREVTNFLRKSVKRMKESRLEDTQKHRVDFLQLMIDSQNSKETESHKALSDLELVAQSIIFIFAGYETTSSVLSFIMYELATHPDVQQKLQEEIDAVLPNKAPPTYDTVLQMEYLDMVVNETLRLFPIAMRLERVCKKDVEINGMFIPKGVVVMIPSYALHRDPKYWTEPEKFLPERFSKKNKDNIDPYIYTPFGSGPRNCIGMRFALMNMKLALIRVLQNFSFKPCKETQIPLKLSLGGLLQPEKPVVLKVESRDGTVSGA

[16] = target: Glucose-6-phosphate 1-dehydrogenase (Homo sapiens, UniProt P11413); assay: human G6PD enzyme inhibitors, dose response, selectivity assay for P. falciparum G6PD inhibitor project, biochemical, fluorescence (AID 504792); type: functional
[17] = cytotoxicity toward NIH3T3 fibroblasts, dose response, counter-screen, cell-based, ATP luminescence, mouse fibroblasts (AID 2010); type: functional;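 also: cells exposed to compound for about 90 hours before reading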
[18] = inhibitors of intracellular T. cruzi replication, confirmation, NIH3T3 host cells, beta-gal luminescence (AID 2044); type: functional, cell-based;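 also: intracellular parasites grown in NIH/3T3 mouse fibroblasts as host cells; luminescent beta-galactosidase reporter signal from transgenic T. cruzi replicating inside host cells; inhibitors lower the luminescence signal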
INS1 = assay: beta cell apoptosis inhibitors, cytokine rescue, dose response, luminescence, retest (AID 449756); type: functional, cell-based; details: Rattus norvegicus;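 also: cell death triggered by IL-1 beta plus TNF-alpha plus IFN-gamma mixture; protective hits raise ATP signal compared with cytokine alone wells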
Cytochrome P450 3A4 [19] = target: T5, Cytochrome P450 3A4; remark: listed apart in the source
[20] = Luminescence Cell-Based Dose Retest to Confirm Inhibitors of Cancer Stem Cells. [Related pubchem assays (depositor defined):AID2717, AID2721]; type: functional; details: Homo sapiens

CC1CCN(C(=O)/C(=C\c2cccs2)NC(=O)c2ccccc2)CC1
AC50 (HEK293): > 350 µM (inactive)

COc1cccc(C(=O)CC(=O)C(=O)Nc2ccc(C)cc2Cl)c1
AC50 (HEK293): 35 µM (active)

Cc1cccc2sc(NC(=O)C3CCCN(S(=O)(=O)c4cccc5nonc45)C3)nc12 (configuration not stated)
IC50 [1]: 25.9 µM (active) | IC50 (Prothrombin): 26.2 µM (active) | IC50 [2]: > 100 µM (inactive)

CC(=O)c1sc(N/N=C/c2cccc(O)c2)nc1C
AC50 (HeLa): 77.2 µM (active) | EC50 (H4): 23.2 µM (active) | EC50 [3]: 8.4 µM (active) | EC50 [4]: 6.61 µM (active)

Cc1ccc(-c2nnc(O)c3ccccc23)cc1S(=O)(=O)NCC1CCCO1 (configuration not stated)
AC50 [5]: 53.2 µM (active) | IC50 (H9c2): 15.3 µM (active)

CC(=O)N(C1CC(C)C(C#N)(C#N)C1(C#N)C#N)N(C)C (configuration not stated)
AC50 [5]: 9.24 µM (active) | AC50 [6]: 1.68 µM (active) | IC50 (Fatty acid synthase [7]): 6.1 µM (active) | IC50 (Fatty acid synthase [8]): 8.68 µM (active) | EC50 (Protein RecA): 3.17 µM (active)

CC(C)(C)C(=O)c1cnc(Nc2ccccc2Cl)s1
AC50 (HeLa): 121 µM (active)

O=c1c2c(-c3cccs3)csc2[nH]c(=S)n1-c1ccccc1
EC50 [9]: 11.6 µM (not active) | EC50 [10]: > 79.4 µM (not active) | EC50 [11]: 12.8 µM (inactive) | AC50 (Cytochrome P450 2C9): 8.91 µM (inconclusive)

Cc1cc2c(cc(C(=O)OC(C(=O)NC3CCCCC3)C(C)C)n2C)o1 (configuration not stated)
AC50 [12]: 5.9 µM (active) | AC50 [13]: 55.8 µM (active) | AC50 [14]: 7.23 µM (active)

O=C1CCCc2ccccc2N1Cc1cccc(Cl)c1
AC50 (Cytochrome P450 3A4 [15]): inconclusive

Cc1sc2nc(CSCC(=O)Nc3ccccc3C#N)[nH]c(=O)c2c1C
IC50 [1]: 6.2 µM (active) | IC50 (Prothrombin): 8.26 µM (active) | IC50 [2]: > 100 µM (inactive)

N#Cc1cc(C#N)c(N2CCN(c3ccccn3)CC2)nc1N
AC50 (HeLa): 31.7 µM (active)

Cc1cc(Cl)ccc1NC(=O)CN1CCC(C(O)(c2ccccc2)c2ccccc2)CC1
AC50 (Cytochrome P450 3A4 [15]): inconclusive

COc1cc2c(cc1OC)C1=NC(=O)CN1C(SCc1ccccc1C)=N2
EC50 [9]: 82.7 µM (not active) | EC50 [10]: > 79.4 µM (not active) | EC50 [11]: > 79.4 µM (inactive)

O=C(CC1OC(=O)c2ccccc21)Nc1cc(Cl)ccc1N1CCCC1 (configuration not stated)
IC50 [1]: 14.1 µM (active) | IC50 (Prothrombin): > 100 µM (inactive) | IC50 [2]: > 100 µM (inactive)

Cc1cc(C(=O)OCC(=O)c2ccc(Br)s2)c(C)o1
EC50 [9]: 14.6 µM (not active) | EC50 [10]: > 79.4 µM (not active) | EC50 [11]: > 79.4 µM (inactive)

Cc1cc(SCC(=O)N/N=C/c2ccco2)nc2ccccc12
IC50 [16]: 57.4 µM (inactive)

Cl.OCCN1CCN(CCOc2cccc(Cl)c2)CC1
AC50 (Cytochrome P450 3A4 [15]): inconclusive | EC50 [17]: > 60 µM (inconclusive) | EC50 [18]: 0.413 µM (active)

O=C(Nc1ccc(-c2nc3ccccc3o2)cc1)c1ccc(N2CCOCC2)c([N+](=O)[O-])c1
AC50 [12]: 3.35 µM (active) | AC50 [13]: > 70 µM (inactive) | EC50 [17]: > 60 µM (not active) | AC50 (INS1): 5.18 µM (active) | EC50 [18]: 1.93 µM (active) | AC50 (Cytochrome P450 3A4 [19]): 11.2 µM (inconclusive) | AC50 (Cytochrome P450 2C9): 2.82 µM (inconclusive) | AC50 [14]: 3.62 µM (active)

CCOC(=O)c1c(NC(=O)C(c2ccccc2)c2ccccc2)sc2c1C1CCN2CC1.Cl
AC50 (Cytochrome P450 3A4 [15]): inconclusive | EC50 [17]: > 60 µM (not active) | EC50 [18]: 1.86 µM (active) | AC50 [20]: 1.09 µM (active)

COc1ccc(-c2oc3ncnc(NCCN4CCOCC4)c3c2-c2ccc(OC)cc2)cc1
AC50 (HEK293): 9.19 µM (active) | IC50 (H9c2): > 79 µM (inactive)
